Key:
[1] = system: LPS-induced TNFα release in d-U937 cells; test: LPS-induced TNFα release in d-U937 cells; assay type: cell-based; details: Homo sapiens, dU937, 4 h; read-out: LPS/TNFα REC50 d-U937
Description: (§1) Cellular Potency as Determined by LPS-Induced TNFα/IL-8 Release in d-U937Cells
(§2) U937 cells, a human monocytic cell line, were differentiated to macrophage-type cells by incubation with phorbol myristate acetate (PMA; 100 ng/mL) for 48 to 72 hr. Cells were pre-incubated with final concentrations of test compound for 2 hr and were then stimulated with 0.1 μg/mL of LPS (from E. Coli: O111:B4, Sigma) for 4 hr. The supernatant was collected for determination of TNFα and IL-8 concentrations by sandwich ELISA (Duo-set, R&D systems). […] The relative 50% effective concentration (REC50) was determined from the resultant concentration-response curve. The inhibition of IL-8 production was calculated at each concentration of test compound by comparison with vehicle control. The 50% inhibitory concentration (IC50) was determined from the resultant concentration-response curve.

[2] = system: LPS-induced TNFα release in THP-1 cells; test: LPS-induced TNFα release in THP-1 cells; assay type: cell-based; details: Homo sapiens, 3 μg/mL LPS, 4 hr
Description: Cellular Potency as Determined by LPS-Induced TNFα Release in THP-1 Cells
THP-1 cells, a human monocytic cell line, were stimulated with 3 μg/mL of LPS (from E. Coli; 0111:B4, Sigma) for 4 hr and the supernatant collected for determination of the TNFα concentration by sandwich ELISA (Duo-set, R&D systems). The inhibition of TNFα production was calculated at each concentration by comparison with vehicle control. The 50% inhibitory concentration (IC50) was determined from the resultant concentration-response curve.

[3] = biological target: T1, p38 MAPKα isoform (MAPK14: Invitrogen) (Homo sapiens, UniProt Q16539); test: p38 MAPKα enzyme inhibition assay (FRET, Z-LYTE, via MAPKAP-K2 activation); assay type: biochemical; details: 2 hr pre-incubation, ATP 10.0 μM; read-out: Enzyme Inhibition IC50 p38α
T1 construct: purchased Invitrogen
T1 sequence (Q16539 whole entry, canonical isoform): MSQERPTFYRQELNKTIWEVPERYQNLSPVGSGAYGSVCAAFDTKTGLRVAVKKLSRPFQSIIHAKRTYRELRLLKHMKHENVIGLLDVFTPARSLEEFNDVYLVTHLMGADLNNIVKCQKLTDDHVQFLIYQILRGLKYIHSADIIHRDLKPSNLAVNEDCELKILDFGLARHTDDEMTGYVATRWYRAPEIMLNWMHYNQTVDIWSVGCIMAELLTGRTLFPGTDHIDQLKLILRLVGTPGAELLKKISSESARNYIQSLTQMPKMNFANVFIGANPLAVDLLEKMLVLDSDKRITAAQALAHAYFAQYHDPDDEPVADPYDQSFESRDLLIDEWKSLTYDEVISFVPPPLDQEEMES

[4] = biological target: T2, Recombinant, phosphorylated p38 MAPKγ (MAPK12:Invitrogen) (Homo sapiens, UniProt P53778); test: p38 MAPKγ enzyme inhibition assay (FRET, Z-LYTE); assay type: biochemical; details: 2 hr pre-incubation, ATP 100 μM; read-out: Enzyme Inhibition IC50 p38γ
T2 construct: purchased Invitrogen
T2 sequence (P53778 1-367): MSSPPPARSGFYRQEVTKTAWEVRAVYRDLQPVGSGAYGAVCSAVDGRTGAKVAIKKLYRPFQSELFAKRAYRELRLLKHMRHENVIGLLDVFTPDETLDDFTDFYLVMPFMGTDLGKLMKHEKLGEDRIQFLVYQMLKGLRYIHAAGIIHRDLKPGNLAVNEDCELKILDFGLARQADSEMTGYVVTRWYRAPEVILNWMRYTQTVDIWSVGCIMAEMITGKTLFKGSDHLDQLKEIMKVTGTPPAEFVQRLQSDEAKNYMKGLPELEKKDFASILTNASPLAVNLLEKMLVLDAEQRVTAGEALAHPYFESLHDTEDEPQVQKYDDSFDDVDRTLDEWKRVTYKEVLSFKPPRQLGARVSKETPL
Description: The enzyme inhibitory activities of compounds disclosed herein were determined by fluorescence resonance energy transfer (FRET) using synthetic peptides labelled with both donor and acceptor fluorophores (Z-LYTE, Invitrogen Ltd., Paisley, UK). Recombinant, phosphorylated p38 MAPKγ (MAPK12:Invitrogen) was diluted in HEPES buffer, mixed with the test compound at the desired final concentrations and incubated for 2 hr at RT. The FRET peptide (2 μM) and ATP (100 μM) were added to the enzyme/compound mixture and incubated for 1 hr. Development reagent (protease) was added for 1 hr prior to detection in a fluorescence microplate reader (Varioskan® Flash, ThermoFisher Scientific). The site-specific protease cleaves non-phosphorylated peptide only and eliminates the FRET signal. Phosphorylation levels of each reaction were calculated using the ratio of coumarin emission (donor) over fluorescein emission (acceptor) for which high ratios indicate high phosphorylation and low ratios indicate low phosphorylation levels.

[5] = system: Poly I:C-induced ICAM-1 expression in BEAS2B cells; test: Poly I:C-induced ICAM-1 induction in BEAS2B cells; assay type: cell-based; details: Homo sapiens, BEAS-2B, poly I:C 1 μg/mL, 18 hr, read-out: PolyI:C/ICAM1 IC50 BEAS2B
Description: Cellular Potency as Determined by Poly I:C-Induced ICAM-1 Induction in BEAS2B Cells
Poly I:C (1 μg/mL) (Invivogen Ltd., San Diego, Calif.) was transfected into BEAS2B cells (human bronchial epithelial cells, ATCC) with Oligofectamine (Invitrogen, Carlsbad, Calif.). Cells were pre-incubated with final concentrations of test compounds for 2 hr and the level of ICAM1 expression on the cell surface was determined by cell-based ELISA. At a time point 18 hr after poly I:C transfection, cells were fixed with 4% formaldehyde in PBS and then endogenous peroxidase was quenched by the addition of 0.1% sodium azide and 1% hydrogen peroxide. Cells were washed with wash-buffer (0.1% Tween in PBS: PBS-Tween). and after blocking the wells with 5% milk in PBS-Tween for 1 hr, the cells were incubated with anti-human ICAM-1 antibody (Cell Signaling Technology, Danvers, Mass.) in 1% BSA PBS overnight at 4° C. The cells were washed with PBS-Tween and incubated with the secondary antibody (HRP-conjugated anti-rabbit IgG, Dako Ltd., Glostrup, Denmark). The ICAM-1 signal was detected by adding substrate and reading the absorbance at 450 nm against a reference wavelength of 655 nm using a spectrophotometer. The cells were then washed with PBS-Tween and total cell numbers in each well were determined by reading absorbance at 595 nm after Crystal Violet staining and elution by 1% SDS solution. The measured OD 450-655 readings were corrected for cell number by dividing with the OD595 reading in each well. The inhibition of ICAM-1 expression was calculated at each concentration of test compound by comparison with vehicle control. The 50% inhibitory concentration (IC50) was determined from the resultant concentration-response curve.

[6] = system: Differentiated U937 cells; test: MTT assay: cell viability on exposure to test compounds; assay type: cell-based, human; details: percentage loss of cell viability vs vehicle, 1 μg/mL; for MTT Assay (Viability) 4 h d-U937: 5% FCS; for MTT Assay (Viability) 24 h d-U937: 10% FCS
Description: MTT Assay: Determination of Cell Viability on Exposure to Test Compounds
Differentiated U937 cells were pre-incubated with each test compound under two protocols: the first for 4 hr in 5% FCS and the second in 10% FCS for 24 h. The supernatant was replaced with 200 μL of new media and 10 μL of MTT stock solution (5 mg/mL) was added to each well. After incubation for 1 hr the media were removed, 200 μL of DMSO was added to each well and the plates were shaken lightly for 1 hr prior to reading the absorbance at 550 nm. The percentage loss of cell viability was calculated for each well relative to vehicle (0.5% DMSO) treatment. Consequently an apparent increase in cell viability for drug treatment relative to vehicle is tabulated as a negative percentage.

[7] = system: LPS-induced IL-8 release in d-U937 cells; test: LPS-induced IL-8 release in d-U937 cells; assay type: cell-based; details: Homo sapiens, dU937, 0.1 μg/mL LPS, 4 hr
Description: as §1, §2

`COCC(=O)Nc1cc(Oc2ccc(NC(=O)Nc3cc(C(C)(C)C)nn3-c3cccc(O)c3)c3ccccc23)ccn1` [Example 32, N-(4-(4-(3-(3-tert-butyl-1-(3-hydroxyphenyl)-1H-pyrazol-5-yl)ureido)naphthalen-1-yloxy)pyridin-2-yl)-2-methoxyacetamide] showed an EC50 [1] of 0.1 nM, an IC50 [2] of 0.7 nM and an IC50 [3] of 7.7 nM. For the same compound, the IC50 [4] was 78.4 nM, the IC50 [5] was 5.5 nM and the “MTT Assay (Viability) 4 h d-U937” value [6] was 5.8%. For the same compound, the “MTT Assay (Viability) 24 h d-U937” value [6] was 42.2% and the IC50 [7] was 0.7 nM.
Compound `COc1ccc(-n2nc(C(C)(C)C)cc2NC(=O)Nc2ccc(Oc3ccnc(NC(=O)N(C)C)c3)c3ccccc23)cc1` [Example 7, 3-(4-(4-(3-(3-tert-Butyl-1-(4-methoxyphenyl)-1H-pyrazol-5-yl)ureido)naphthalen-1-yloxy)pyridin-2-yl)-1,1-dimethylurea] has an EC50 [1] of 0.03 nM, an IC50 [2] of 0.7 nM and an IC50 [3] of 4.1 nM. The IC50 [4] was 138 nM, the IC50 [5] was 1.9 nM and the “MTT Assay (Viability) 4 h d-U937” value [6] was −13.3%. The “MTT Assay (Viability) 24 h d-U937” value [6] was −39.1% and the IC50 [7] was 0.1 nM.
`COc1ccc(-n2nc(C(C)(C)C)cc2NC(=O)Nc2ccc(Oc3ccnc(NC(=O)NC4CC4)c3)c3ccccc23)cc1` [Example 6, 1-(3-(tert-Butyl)-1-(4-methoxyphenyl)-1H-pyrazol-5-yl)-3-(4-(2-(3-cyclopropylureido)pyridin-4-yloxy)naphthalen-1-yl)urea] showed an EC50 [1] of 19.4 nM, an IC50 [2] of 1.2 nM and an IC50 [3] of 17.8 nM. For the same compound, the IC50 [4] was 51.3 nM, the IC50 [5] was 1 nM and the “MTT Assay (Viability) 4 h d-U937” value [6] was −10.7%. For the same compound, the “MTT Assay (Viability) 24 h d-U937” value [6] was −50.1% and the IC50 [7] was 2.6 nM.
In the case of `COCC(=O)Nc1cc(Oc2ccc(NC(=O)Nc3cc(C(C)(C)C)nn3-c3cccc(OC)c3)c3ccccc23)ccn1` [Example 36, N-(4-(4-(3-(3-tert-butyl-1-(3-methoxyphenyl)-1H-pyrazol-5-yl)ureido)naphthalen-1-yloxy)pyridin-2-yl)-2-methoxyacetamide], the EC50 [1] is reported as 0.1 nM, the IC50 [2] is reported as 0.8 nM and the IC50 [3] is reported as 15.1 nM. The IC50 [4] was 153 nM, the IC50 [5] was 4.9 nM and the “MTT Assay (Viability) 4 h d-U937” value [6] was −5.2%. The “MTT Assay (Viability) 24 h d-U937” value [6] was −1.6% and the IC50 [7] was 0.8 nM.
For `CC(C)(C)c1cc(NC(=O)Nc2ccc(Oc3ccnc(NC(=O)N4CCOCC4)c3)c3ccccc23)n(-c2ccc(O)c(Cl)c2)n1` [Example 12, N-(4-((4-(3-(3-(tert-Butyl)-1-(3-chloro-4-hydroxyphenyl)-1H-pyrazol-5-yl)ureido)naphthalen-1-yl)oxy)pyridin-2-yl)morpholine-4-carboxamide], the EC50 [1] was 0.4 nM, the IC50 [2] was 3.3 nM and the IC50 [3] was 2.7 nM. For the same compound, the IC50 [4] was 147 nM, the IC50 [5] was 3.2 nM and the “MTT Assay (Viability) 4 h d-U937” value [6] was −6.2%. For the same compound, the “MTT Assay (Viability) 24 h d-U937” value [6] was −42.9% and the IC50 [7] was 8.4 nM.
`COCC(=O)Nc1cc(Oc2ccc(NC(=O)Nc3cc(C(C)(C)C)nn3-c3ccc(SC)cc3)c3ccccc23)ccn1` [Example 44, N-(4-(4-(3-(3-tert-butyl-1-(4-(methylthio)phenyl)-1H-pyrazol-5-yl)ureido)naphthalen-1-yloxy)pyridin-2-yl)-2-methoxyacetamide] gave an EC50 [1] of 0.1 nM, an IC50 [2] of 1.2 nM and an IC50 [3] of 15.1 nM. For the same compound, the IC50 [4] was 194 nM, the IC50 [5] was 7.5 nM and the “MTT Assay (Viability) 4 h d-U937” value [6] was −4.0%. For the same compound, the “MTT Assay (Viability) 24 h d-U937” value [6] was −16.4% and the IC50 [7] was 5.9 nM.
`COCC(=O)Nc1cc(Oc2ccc(NC(=O)Nc3cc(C(C)(C)C)nn3-c3ccc(Cl)cc3)c3ccccc23)ccn1` [Example 42, N-(4-(4-(3-(3-tert-butyl-1-(4-chlorophenyl)-1H-pyrazol-5-yl)ureido)naphthalen-1-yloxy)pyridin-2-yl)-2-methoxyacetamide] gave an EC50 [1] of 7.2 nM, an IC50 [2] of 2.8 nM and an IC50 [3] of 25 nM. The IC50 [4] was 239 nM, the IC50 [5] was 22.2 nM and the “MTT Assay (Viability) 4 h d-U937” value [6] was −10.7%. For the same compound, the “MTT Assay (Viability) 24 h d-U937” value [6] was −24.9% and the IC50 [7] was 18.9 nM.
`COCC(=O)Nc1cc(Oc2ccc(NC(=O)Nc3cc(C(C)(C)C)nn3-c3ccc(O)nc3)c3ccccc23)ccn1.Cl` [Example 17, N-(4-(4-(3-(3-tert-Butyl-1-(6-hydroxypyridin-3-yl)-1H-pyrazol-5-yl)ureido)naphthalen-1-yloxy)pyridin-2-yl)-2-methoxyacetamide] gave an EC50 [1] of 1.4 nM, an IC50 [2] of 2 nM and an IC50 [3] of 14.3 nM. The IC50 [4] was 76.3 nM, the IC50 [5] was 25.3 nM and the “MTT Assay (Viability) 4 h d-U937” value [6] was −6.1%. For the same compound, the “MTT Assay (Viability) 24 h d-U937” value [6] was −7.6% and the IC50 [7] was 24.5 nM.
`COc1ccc(-n2nc(C(C)(C)C)cc2NC(=O)Nc2ccc(Oc3ccnc(NC(=O)N4CCOCC4)c3)c3ccccc23)cn1` [Example 40, N-(4-(4-(3-(3-tert-butyl-1-(6-methoxypyridin-3-yl)-1H-pyrazol-5-yl)ureido)naphthalen-1-yloxy)pyridin-2-yl)morpholine-4-carboxamide] showed an EC50 [1] of 0.9 nM, an IC50 [2] of 1.5 nM and an IC50 [3] of 15.6 nM. The IC50 [4] was 113 nM, the IC50 [5] was 4.8 nM and the “MTT Assay (Viability) 4 h d-U937” value [6] was −12.1%. The “MTT Assay (Viability) 24 h d-U937” value [6] was −12.0% and the IC50 [7] was 6.2 nM.
`COCC(=O)Nc1cc(Oc2ccc(NC(=O)Nc3cc(C(C)(C)C)nn3-c3ccc(OC)cc3)c3ccccc23)ccn1` [Example 3, N-(4-((4-(3-(3-(tert-Butyl)-1-(4-methoxyphenyl)-1H-pyrazol-5-yl)ureido)naphthalen-1-yl)oxy)pyridin-2-yl)-2-methoxyacetamide] was tested, and the EC50 [1] was 1.9 nM, the IC50 [2] was 1.5 nM and the IC50 [3] was 15.5 nM. For the same compound, the IC50 [4] was 58.2 nM, the IC50 [5] was 5.7 nM and the “MTT Assay (Viability) 4 h d-U937” value [6] was −28.4%. The “MTT Assay (Viability) 24 h d-U937” value [6] was −51.5% and the IC50 [7] was 3.3 nM.
Compound `COCC(=O)Nc1cc(Oc2ccc(NC(=O)Nc3cc(C4CC4)nn3-c3ccc(C)cc3)c3ccccc23)ccn1` [Example 24, N-(4-((4-(3-(3-cyclopropyl-1-p-tolyl-1H-pyrazol-5-yl)ureido)naphthalen-1-yl)oxy)pyridin-2-yl)-2-methoxyacetamide] has an EC50 [1] of 3.3 nM, an IC50 [2] of 11.8 nM and an IC50 [3] of 1.5 nM. For the same compound, the IC50 [4] was 1340 nM, the IC50 [5] was 110 nM and the “MTT Assay (Viability) 4 h d-U937” value [6] was −10.8%. The “MTT Assay (Viability) 24 h d-U937” value [6] was −7.4% and the IC50 [7] was 35.6 nM.
